Data on seven compounds can be found in patent US20100022483A1, “Substituted Tetracycline Compounds” (Paratek Pharmaceuticals, Inc., priority 2008, published 2010).

One series can be described thus: in vitro. Format: cell-based. Particulars: Chinese hamster, Cytotox. CHO-K1.
A further series has as its system 3T3 fibroblast cells. The series is described as follows: In vitro phototoxicity assay (neutral red; UV light-treated vs dark control plates). Particulars: for Photo Toxicity UV Tox50: UV light 50 minutes; for Photo Toxicity Dark Tox50: dark control plate. The series is classed as cell-based. In outline:
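Neutral red viability readout (A535 after EtOH/acetic acid extraction) compares paired plates: one exposed 50 min to UV at 1.6–1.8 mW/cm^2, one held in darkness, both dosed with compound in HBSS and recovered overnight. 3T3 fibroblast cells used; phototoxicity taken as the difference.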

In a further series the test system is gram negative bacteria. The series is described as follows: In vitro anti-bacterial activity assay (broth dilution MIC), gram negative bacteria. The series is classed as cell-based, E. coli. The method, boiled down: (§1)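 Broth dilution MIC following CLSI M7-A2: compounds serially diluted, log-phase test strains added to final ~5×10^5 CFU/ml, incubated ~18 hours at 35° C in ambient air. Plates read on microplate reader or visually; MIC is lowest concentration inhibiting growth.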
For orientation: In broth dilution the organism is exposed to a series of concentrations in liquid medium.

The subject of the next series is gram positive bacteria. The series is described as follows: In vitro anti-bacterial activity assay (broth dilution MIC), gram positive bacteria. Particulars: 18 h. The series is classed as cell-based, S. aureus. In outline:
as §1

The nature of series [1]: Mammalian cytotoxicity assay (resazurin), COS-1 cells. The series is classed as cell-based. Particulars: African green monkey, read-out: Cytotox. COS-1. The method, boiled down:
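Cells seeded overnight at 37° C., 5% CO2, then exposed to serial compound dilutions for 24 hours. Medium replaced with resazurin (0.042 mg/ml in PBS with Ca and Mg) for 2 hours plus 30 minutes dark at room temperature; fluorescence read at ex 535/em 590 nm, IC50 taken as 50% growth inhibition.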

Where [2] appears, read: Escherichia coli, 18 h, E. coli D1 209, read-out: Median MIC's G− E. coli D1 209.
[3] abbreviates: Escherichia coli, 18 h, E. coli MG 1655, read-out: Median MIC's G− E. coli MG 1655.
[4] abbreviates: Escherichia coli, ATCC25922, 18 h, E. coli ATCC 25922, read-out: Median MIC's G− E. coli ATCC 25922.
[5] abbreviates: Pseudomonas aeruginosa, 18 h, P. aeruginosa K201 PAO6609, read-out: Median MIC's G− P. aeruginosa K201 PAO6609.
[6] abbreviates: Staphylococcus aureus, S. aureus MRSA5, read-out: Median MIC's G+ S. aureus MRSA5.
Where [7] appears, read: Staphylococcus aureus, S. aureus RN450, read-out: Median MIC's G+ S. aureus RN450.
Where [8] appears, read: Streptococcus pneumoniae, S. pneumoniae 157E-Strep, read-out: Median MIC's G+ S. pneumoniae 157E-Strep.

Values after ≈ are worked out from the molar mass of the structure shown. Like-named read-outs stand apart in the source and are kept apart here. Bounds are passed on as bounds.

Consider `CN(C)Cc1ccc(-c2ccc(O)c3c2C[C@H]2C[C@H]4[C@H](N(C)C)C(O)=C(C(N)=O)C(=O)[C@@]4(O)C(O)=C2C3=O)[nH]1` [BK], for which the IC50 at 24 h (in “in vitro”; in series [1]) was > 148 µM throughout. For the same compound, in the series on 3T3 fibroblast cells, the “Photo Toxicity UV Tox50” value is >147.66 µM. The “Photo Toxicity Dark Tox50” value in the series with 3T3 fibroblast cells was >147.66 µM. Also, the MIC in the series on gram negative bacteria (setting [2]) is 64 µg/mL (≈ 119 µM); in the series with gram negative bacteria (setting [3]) it was 4 µg/mL (≈ 7.45 µM); in the series on gram negative bacteria (setting [4]), 4 µg/mL (≈ 7.45 µM); in the series with gram negative bacteria (setting [5]), 32 µg/mL (≈ 59.6 µM); in the series on gram positive bacteria (setting [6]), 4 µg/mL (≈ 7.45 µM); with gram positive bacteria (setting [7]), 0.25 µg/mL (≈ 0.466 µM). The MIC in the series on gram positive bacteria (setting [8]) is 0.13 µg/mL (≈ 0.242 µM).
In the case of `CN(C)[C@@H]1C(O)=C(C(N)=O)C(=O)[C@@]2(O)C(O)=C3C(=O)c4c(O)ccc(-c5ccc(NC(=O)CNC(C)(C)C)cc5)c4C[C@H]3C[C@@H]12` [AF], the IC50 at 24 h (in “in vitro”; in series [1]) was > 13.7 µM throughout. The “Photo Toxicity UV Tox50” value in the series with 3T3 fibroblast cells was >137.36 µM. For the same compound, the “Photo Toxicity Dark Tox50” value in the series with 3T3 fibroblast cells was >137.36 µM. Also, the MIC with gram negative bacteria (setting [2]) amounted to 2 µg/mL (≈ 3.23 µM); in the series with gram positive bacteria (setting [6]), 4 µg/mL (≈ 6.47 µM); in the series with gram positive bacteria (setting [7]), 0.06 µg/mL (≈ 0.097 µM); in the series with gram positive bacteria (setting [8]), 0.06 µg/mL (≈ 0.097 µM).
As for `COCCNC(=O)c1cccc(-c2ccc(O)c3c2C[C@H]2C[C@H]4[C@H](N(C)C)C(O)=C(C(N)=O)C(=O)[C@@]4(O)C(O)=C2C3=O)c1` [L], the IC50 at 24 h (in the series “in vitro”; in series [1]) was > 15.1 µM in each case. The “Photo Toxicity UV Tox50” value in the series on 3T3 fibroblast cells is >151.25 µM. Further, the “Photo Toxicity Dark Tox50” value in the series with 3T3 fibroblast cells was >151.25 µM. The MIC in the series with gram negative bacteria (setting [2]) was found to be 64 µg/mL (≈ 108 µM); in the series with gram negative bacteria (setting [3]), 32 µg/mL (≈ 54.1 µM); in the series with gram negative bacteria (setting [4]), 8 µg/mL (≈ 13.5 µM); in the series on gram negative bacteria (setting [5]), 64 µg/mL (≈ 108 µM); in the series on gram positive bacteria (setting [6]), 1 µg/mL (≈ 1.69 µM); in the series with gram positive bacteria (setting [7]), 0.06 µg/mL (≈ 0.101 µM). For the same compound, the MIC with gram positive bacteria (setting [8]) came out at 0.06 µg/mL (≈ 0.101 µM).
As for `CN(C)CC/C(=N\OC(C)(C)C)c1ccc(O)c2c1C[C@H]1C[C@H]3[C@H](N(C)C)C(O)=C(C(N)=O)C(=O)[C@@]3(O)C(O)=C1C2=O` [CJ], the IC50 at 24 h in “in vitro” turned out to be 34.6 µM; in series [1], 82.2 µM. Moreover, the “Photo Toxicity UV Tox50” value in the series on 3T3 fibroblast cells was 62.89 µM. The “Photo Toxicity Dark Tox50” value in the series with 3T3 fibroblast cells is >136.86 µM. For the same compound, the MIC with gram negative bacteria (setting [2]) amounted to 1 µg/mL (≈ 1.71 µM); in the series with gram negative bacteria (setting [3]) it was 2 µg/mL (≈ 3.42 µM); in the series on gram negative bacteria (setting [4]) it was 0.5 µg/mL (≈ 0.855 µM); with gram negative bacteria (setting [5]), 64 µg/mL (≈ 109 µM); with gram positive bacteria (setting [6]) it was 2 µg/mL (≈ 3.42 µM); in the series on gram positive bacteria (setting [7]), 0.06 µg/mL (≈ 0.103 µM). In the series on gram positive bacteria (setting [8]), the minimum inhibitory concentration (MIC) came out at 0.06 µg/mL (≈ 0.103 µM).
For the compound `CN(C)CCNC(=O)c1ccc(-c2ccc(O)c3c2C[C@H]2C[C@H]4[C@H](N(C)C)C(O)=C(C(N)=O)C(=O)[C@@]4(O)C(O)=C2C3=O)cc1` [AD], the IC50 at 24 h (in “in vitro”; in series [1]) was > 43.5 µM throughout. The “Photo Toxicity UV Tox50” value in the series on 3T3 fibroblast cells stood at 135.17 µM. For the same compound, the “Photo Toxicity Dark Tox50” value in the series with 3T3 fibroblast cells is >140.2 µM. In addition, the MIC with gram negative bacteria (setting [2]) was 64 µg/mL (≈ 106 µM); with gram negative bacteria (setting [3]), 8 µg/mL (≈ 13.2 µM); with gram negative bacteria (setting [4]), 16 µg/mL (≈ 26.5 µM); in the series with gram negative bacteria (setting [5]), 64 µg/mL (≈ 106 µM); in the series on gram positive bacteria (setting [6]), 16 µg/mL (≈ 26.5 µM); in the series on gram positive bacteria (setting [7]), 0.25 µg/mL (≈ 0.413 µM). The MIC in the series on gram positive bacteria (setting [8]) amounted to 0.13 µg/mL (≈ 0.215 µM).
For the compound `CN(C)[C@H]1C(O)=C(C(N)=O)C(=O)[C@@]2(O)C(O)=C3C(=O)c4c(O)ccc(-c5cccc(C(N)=O)c5)c4C[C@H]3C[C@@H]12` (stereo in doubt) [B], the IC50 at 24 h (in “in vitro”; in series [1]) was > 15.7 µM in each case. In the series on 3T3 fibroblast cells, the “Photo Toxicity UV Tox50” value was >156.64 µM. In the series with 3T3 fibroblast cells, the “Photo Toxicity Dark Tox50” value was >156.64 µM. Also, the MIC in the series on gram negative bacteria (setting [2]) amounted to 64 µg/mL (≈ 120 µM); in the series on gram negative bacteria (setting [3]) it was 64 µg/mL (≈ 120 µM); in the series with gram negative bacteria (setting [4]), 64 µg/mL (≈ 120 µM); in the series on gram negative bacteria (setting [5]), 64 µg/mL (≈ 120 µM); in the series with gram positive bacteria (setting [6]), 64 µg/mL (≈ 120 µM); with gram positive bacteria (setting [7]), 2 µg/mL (≈ 3.75 µM). In the series with gram positive bacteria (setting [8]), the MIC came to 2 µg/mL (≈ 3.75 µM).
As for `CCOC(=O)N1CCN(CC(=O)c2ccc(O)c3c2C[C@H]2C[C@H]4[C@H](N(C)C)C(O)=C(C(N)=O)C(=O)[C@@]4(O)C(O)=C2C3=O)CC1` [BR], the IC50 at 24 h (in “in vitro”; in series [1]) was > 40.7 µM throughout. Besides, in the series with 3T3 fibroblast cells, the “Photo Toxicity UV Tox50” value was >131.28 µM. Besides, the “Photo Toxicity Dark Tox50” value in the series with 3T3 fibroblast cells is >131.28 µM. Moreover, the MIC with gram negative bacteria (setting [2]) came out at 64 µg/mL (≈ 104 µM); in the series on gram negative bacteria (setting [3]) it was 8 µg/mL (≈ 13.1 µM); in the series with gram negative bacteria (setting [4]), 8 µg/mL (≈ 13.1 µM); in the series on gram negative bacteria (setting [5]), 64 µg/mL (≈ 104 µM); in the series on gram positive bacteria (setting [6]), 0.5 µg/mL (≈ 0.816 µM); in the series with gram positive bacteria (setting [7]), 0.06 µg/mL (≈ 0.0979 µM). In addition, the MIC in the series with gram positive bacteria (setting [8]) turned out to be 0.06 µg/mL (≈ 0.0979 µM).

Broadly, the MIC is the least concentration at which growth counts as inhibited.
